# According to PMC7508162 (Frontiers in Pharmacology, 2020):
# Entries after “also recorded” stand apart in the source; their conditions may differ. Where two headings read alike, the source gives them in different places.
# Target: T1, human CD39 (Homo sapiens, UniProt P49961)
# T1 sequence (P49961 1-510): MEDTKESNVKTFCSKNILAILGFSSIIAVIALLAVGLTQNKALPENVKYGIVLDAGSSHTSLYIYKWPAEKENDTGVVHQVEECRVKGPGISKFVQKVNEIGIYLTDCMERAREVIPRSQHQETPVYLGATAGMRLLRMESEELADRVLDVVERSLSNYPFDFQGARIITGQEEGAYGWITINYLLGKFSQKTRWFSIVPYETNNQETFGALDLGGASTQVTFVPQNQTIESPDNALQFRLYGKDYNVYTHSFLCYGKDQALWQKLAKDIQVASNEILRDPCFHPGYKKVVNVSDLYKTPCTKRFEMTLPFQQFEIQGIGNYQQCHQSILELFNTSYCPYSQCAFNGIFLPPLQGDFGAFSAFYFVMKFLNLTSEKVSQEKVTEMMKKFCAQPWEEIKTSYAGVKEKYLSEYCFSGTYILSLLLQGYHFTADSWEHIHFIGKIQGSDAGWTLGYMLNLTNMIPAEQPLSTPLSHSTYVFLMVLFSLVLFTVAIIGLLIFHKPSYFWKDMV
# Experiment: Fluorescence capillary electrophoresis assay for CD39
# Type: biochemical
# Set-up: Human umbilical cord membrane preparations (250 ng) natively expressing high amounts of CD39; from tissue; host or cells: human umbilical cord membranes
# Settings: for Ki: human umbilical cord membrane preparation, n = 3, Cheng-Prusoff; for inhibition at 10 µM: read-out: % inhibition at 10 µM; for CD39 inhibition (in words) / IC50 (in words): human CD39
# Experimental: They were minced and homogenized with a polytron in 95 mM NaCl, 0.1 mM phenylmethylsulfonyl fluoride (PMSF), and 45 mM Tris solution, pH 7.6. […] The pellets were resuspended in 5 mM Tris buffer solution, pH 8.0 and 10% glycerol. All purification steps were performed at 4°C. The preparations were kept at −80°C.
# For inhibition screening, three independent experiments were performed. […] The reaction buffer contained 10 mM HEPES, 2 mM CaCl2, 1 mM MgCl2, pH 7.4. The samples were incubated at 37°C for 4 min, and the enzymatic reaction was terminated by heating at 90°C for 5 min. The solution was then diluted 1:20 with reaction buffer to perform separation of nucleotides by capillary electrophoresis (CE) followed by laser-induced fluorescence (LIF) detection. […] Three independent experiments were performed, and curves were calculated by GraphPad Prism 8 software (GraphPad software, San Diego, CA, USA).
# Analysis was carried out using a P/ACE MDQ capillary electrophoresis system (Beckman Instruments, Fullerton, CA, USA). The separation was performed in a polyacrylamide-coated capillary [30 cm (10 cm effective length) × 50 µm (id), × 360 µm (od)]. Before each run, the capillary was rinsed with the background electrolyte [50 mM phosphate buffer (pH 6.5)] for 1 min at 30 psi. Samples were electrokinetically injected by applying a voltage of -6 kV for 30 s at the capillary outlet, and the fluorescent nucleotide derivatives were separated by voltage application of -15 kV. […] Data collection and peak area analysis were performed by the P/ACE MDQ software 32 KARAT obtained from Beckman Coulter (Fullerton, CA, USA).
# [1] = fluorescent substrate PSB-017621A 0.5 µM, read-out: Ki ± SEM
# [2] = screening at 10 µM, fluorescent substrate PSB-017621A 0.5 µM
# [3] = ratio of Ki values, fluorescence CE assay
Structure (SMILES),Ki [1] [µM],inhibition at 10 µM [2] [%],also measured
"CCCN(CCC)c1ncnc2c1ncn2[C@@H]1O[C@H](COP(=O)(O)OP(=O)(O)C(Br)(Br)P(=O)(O)O)[C@@H](O)[C@H]1O [Compound 27, (Dibromo((((((2R,3S,4R,5R)-5-(6-(dipropylamino)-9H-purin-9-yl)-3,4-dihydroxytetrahydro-furan-2-yl)methoxy)-(hydroxy)phosphoryl)oxy)(hydroxy)phosphoryl)methyl)-phosphonic Acid]",2.68 ± 1.11,,
"CCCCNc1nc2c(N(C)C)ncnc2n1[C@@H]1O[C@H](COP(=O)(O)OP(=O)(O)C(Br)(Br)P(=O)(O)O)[C@@H](O)[C@H]1O [Compound 34, (Dibromo((((((2R,3S,4R,5R)-5-(8-(butylamino)-6-(dimethylamino)-9H-purin-9-yl)-3,4-di-hydroxytetrahydrofuran-2-yl)methoxy)(hydroxy)-phosphoryl)oxy)(hydroxy)phosphoryl)methyl)-phosphonic Acid]",~10,54,
"O=P(O)(OC[C@H]1O[C@@H](n2cnc3c(NCc4ccccc4)ncnc32)[C@H](O)[C@@H]1O)OP(=O)(O)C(Br)(Br)P(=O)(O)O [Compound 29, (((((((2R,3S,4R,5R)-5-(6-(Benzylamino)-9H-purin-9-yl)-3,4-dihydroxytetrahydrofuran-2-yl)methoxy)(hydroxy)-phosphoryl)oxy)(hydroxy)phosphoryl)dibromomethyl)-phosphonic Acid]",> 10,4,CD39 inhibition (in words): abolishment of the CD39-inhibiting activity
"CN(C)c1ncnc2c1ncn2[C@@H]1O[C@H](COP(=O)(O)OP(=O)(O)C(Br)(Br)P(=O)(O)O)[C@@H](O)[C@H]1O [Compound 24, (Dibromo((((((2R,3S,4R,5R)-5-(6-(dimethylamino)-9H-purin-9-yl)-3,4-dihydroxytetrahydro-furan-2-yl)methoxy)-(hydroxy)phosphoryl)oxy)(hydroxy)phosphoryl)methyl)-phosphonic Acid]",40.1 ± 7,,fold decrease in CD39 potency compared to I [3]: 41 fold
"CCCN(CC)c1ncnc2c1ncn2[C@@H]1O[C@H](COP(=O)(O)OP(=O)(O)C(Br)(Br)P(=O)(O)O)[C@@H](O)[C@H]1O [Compound 28, (Dibromo((((((2R,3S,4R,5R)-5-(6-(ethyl(propyl)amino)-9H-purin-9-yl)-3,4-dihydroxytetra-hydrofuran-2-yl)methoxy)-(hydroxy)phosphoryl)oxy)(hydroxy)phosphoryl)methyl)-phosphonic Acid]",2.22 ± 0.02,,
"CCCCSc1nc2c(NC)ncnc2n1[C@@H]1O[C@H](COP(=O)(O)OP(=O)(O)C(Br)(Br)P(=O)(O)O)[C@@H](O)[C@H]1O [Compound 36, (Dibromo((((((2R,3S,4R,5R)-5-(8-(butylthio)-6-(methylamino)-9H-purin-9-yl)-3,4-dihydroxy-tetrahydrofuran-2-yl)methoxy)(hydroxy)phosphoryl)oxy)-(hydroxy)phosphoryl)methyl)phosphonic Acid]",> 10,39,
"CCN(C)c1ncnc2c1ncn2[C@@H]1O[C@H](COP(=O)(O)OP(=O)(O)C(Br)(Br)P(=O)(O)O)[C@@H](O)[C@H]1O [Compound 25, (Dibromo((((((2R,3S,4R,5R)-5-(6-(ethyl(methyl)amino)-9H-purin-9-yl)-3,4-dihydroxytetra-hydrofuran-2-yl)methoxy)-(hydroxy)phosphoryl)oxy)(hydroxy)phosphoryl)methyl)-phosphonic Acid]",6.48 ± 2.6,,fold decrease in CD39 potency compared to I [3]: about 7 fold
"CCN(CC)c1ncnc2c1nc(NC)n2[C@@H]1O[C@H](COP(=O)(O)OP(=O)(O)C(Br)(Br)P(=O)(O)O)[C@@H](O)[C@H]1O [Compound 35, (Dibromo((((((2R,3S,4R,5R)-5-(6-(diethylamino)-8-(methylamino)-9H-purin-9-yl)-3,4-di-hydroxytetrahydrofuran-2-yl)methoxy)(hydroxy)phosphoryl)-oxy)(hydroxy)phosphoryl)methyl)phosphonic Acid]",~10,59,
"Nc1ncnc2c1ncn2[C@@H]1O[C@H](COP(=O)(O)OP(=O)(O)C(Cl)(Cl)P(=O)(O)O)[C@@H](O)[C@H]1O [Compound 39, (((((((2R,3S,4R,5R)-5-(6-Amino-9H-purin-9-yl)-3,4-dihydroxytetrahydrofuran-2-yl)methoxy)-(hydroxy)-phosphoryl)oxy)(hydroxy)phosphoryl)dichloromethyl)-phosphonic Acid]",9.53 ± 1.46,,IC50 (in words): low micromolar range; fold less potent than dibromo-derivative 38 at CD39 [3]: about 2 fold
"Nc1ncnc2c1ncn2[C@@H]1O[C@H](COP(=O)(O)OP(=O)(O)C(Br)(Br)P(=O)(O)O)[C@@H](O)[C@H]1O [Compound 38, (((((((2R,3S,4R,5R)-5-(6-amino-9H-purin-9-yl)-3,4-dihydroxytetrahydrofuran-2-yl)methoxy)-(hydroxy)-phosphoryl)oxy)(hydroxy)phosphoryl)dibromomethyl)-phosphonic Acid]",5.26 ± 0.22,,IC50 (in words): low micromolar range; fold decrease in CD39 potency compared to I [3]: about 5 fold
"CNc1ncnc2c1nc(NC1CC1)n2[C@@H]1O[C@H](COP(=O)(O)OP(=O)(O)C(Br)(Br)P(=O)(O)O)[C@@H](O)[C@H]1O [Compound 32, (Dibromo((((((2R,3S,4R,5R)-5-(8-(cyclopropylamino)-6-(methylamino)-9H-purin-9-yl)-3,4-di-hydroxytetrahydrofuran-2-yl)methoxy)(hydroxy)-phosphoryl)oxy)(hydroxy)phosphoryl)methyl)phosphonic-Acid]",5.72 ± 0.86,,
"Nc1ncnc2c1ncn2[C@@H]1O[C@H](COP(=O)(O)CP(=O)(O)O)[C@@H](O)[C@H]1O [Compound 42, α,β-Methylene-ADP, reference compound]",,,"Ki (Ki ± SEM, fluorescent substrate PSB-017621A 0.5 µM): > 10 µM; inhibition at 10 µM: 14%"
"CCCN(C)c1ncnc2c1ncn2[C@@H]1O[C@H](COP(=O)(O)OP(=O)(O)C(Br)(Br)P(=O)(O)O)[C@@H](O)[C@H]1O [Compound 26, (Dibromo((((((2R,3S,4R,5R)-3,4-dihydroxy-5-(6-(methyl-(propyl)amino)-9H-purin-9-yl)tetra-hydrofuran-2-yl)-methoxy)(hydroxy)phosphoryl)oxy)(hydroxy)phosphoryl)-methyl)phosphonic Acid]",4.04 ± 2.12,,
"Nc1ncnc2c1ncn2[C@@H]1O[C@H](COP(=O)(O)OP(=O)(O)CP(=O)(O)O)[C@@H](O)[C@H]1O [Compound 43, β,γ-Methylene-ATP, reference compound]",> 10,23,CD39 inhibition (in words): virtually inactive; also recorded: no significant inhibition
"O=P(O)(OC[C@H]1O[C@@H](n2cnc3c(NCCc4ccccc4)ncnc32)[C@H](O)[C@@H]1O)OP(=O)(O)C(Br)(Br)P(=O)(O)O [Compound 30, (Dibromo((((((2R,3S,4R,5R)-3,4-dihydroxy-5-(6-(phenethylamino)-9H-purin-9-yl)tetrahydrofuran-2-yl)-methoxy)(hydroxy)phosphoryl)oxy)(hydroxy)phosphoryl)-methyl)phosphonic Acid]",4.82 ± 0.21,,
